Data reported in PMC11233931, “Remodeling tumor‐associated macrophage for anti‐cancer effects by rational design of irreversible inhibition of mitogen‐activated protein kinase‐activated protein kinase 2” (MedComm, 2024).

What was measured:
Test in all cases: Eurofins kinase selectivity profile against 380 other human recombinant kinases (Table S2)
Type in all cases: biochemical
[1] = molecular target: T1, 380 human recombinant protein kinases (Homo sapiens, UniProt P49759); details: CLK1(h), read-out: Inhibition rate
T1 construct: purchased Eurofins (Celle Lévescault)
Method in brief: (§1)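 Commercial selectivity screen of the test compound against a panel of 380 human recombinant protein kinases, run by an outside contractor at several compound concentrations to check whether its potency was specific for MK2.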

[2] = molecular target: T2, 380 human recombinant protein kinases (Homo sapiens, UniProt Q9UQ07); details: MOK(h), read-out: Inhibition rate
T2 construct: purchased Eurofins (Celle Lévescault)
T2 sequence (Q9UQ07 1-419): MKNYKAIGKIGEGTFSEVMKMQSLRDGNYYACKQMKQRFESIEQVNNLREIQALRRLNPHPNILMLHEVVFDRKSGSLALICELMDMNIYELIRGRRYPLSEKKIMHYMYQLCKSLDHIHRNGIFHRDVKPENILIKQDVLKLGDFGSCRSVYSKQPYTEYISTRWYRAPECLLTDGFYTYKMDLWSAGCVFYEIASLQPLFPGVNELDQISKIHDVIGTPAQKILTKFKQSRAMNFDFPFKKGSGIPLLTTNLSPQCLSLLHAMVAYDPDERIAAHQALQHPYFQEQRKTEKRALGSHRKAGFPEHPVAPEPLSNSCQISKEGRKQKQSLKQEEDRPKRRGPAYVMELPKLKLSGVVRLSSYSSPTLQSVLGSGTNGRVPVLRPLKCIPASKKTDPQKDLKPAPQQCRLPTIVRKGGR
Method in brief: as §1

[3] = molecular target: T3, 380 human recombinant protein kinases (Homo sapiens, UniProt P42685); details: PTK5(h), read-out: Inhibition rate
T3 construct: purchased Eurofins (Celle Lévescault)
Method in brief: as §1

[4] = molecular target: T4, 380 human recombinant protein kinases (Homo sapiens, UniProt Q16288); details: TrkC(h), read-out: Inhibition rate (%)
T4 construct: purchased Eurofins (Celle Lévescault)
Method in brief: as §1

[5] = molecular target: T5, 380 human recombinant protein kinases (Homo sapiens, UniProt Q13188); details: MST2(h), read-out: Inhibition rate
T5 construct: purchased Eurofins (Celle Lévescault)
T5 sequence (Q13188 1-491): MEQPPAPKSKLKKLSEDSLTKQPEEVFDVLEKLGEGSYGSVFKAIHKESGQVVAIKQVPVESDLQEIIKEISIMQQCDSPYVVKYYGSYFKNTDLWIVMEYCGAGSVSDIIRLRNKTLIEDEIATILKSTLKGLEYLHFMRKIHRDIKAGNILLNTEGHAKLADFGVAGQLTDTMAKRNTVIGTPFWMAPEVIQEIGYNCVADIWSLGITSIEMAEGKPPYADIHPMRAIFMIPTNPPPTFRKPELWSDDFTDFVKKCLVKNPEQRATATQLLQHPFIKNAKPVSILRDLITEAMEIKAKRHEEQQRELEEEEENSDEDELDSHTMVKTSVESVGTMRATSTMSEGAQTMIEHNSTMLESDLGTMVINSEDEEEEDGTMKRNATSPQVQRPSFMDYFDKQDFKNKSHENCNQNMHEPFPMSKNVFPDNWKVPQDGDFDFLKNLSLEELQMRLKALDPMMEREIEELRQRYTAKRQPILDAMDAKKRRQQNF
Method in brief: as §1

[6] = molecular target: T6, 380 human recombinant protein kinases (Homo sapiens, UniProt Q13153); details: PAK1(h), read-out: Inhibition rate
T6 construct: purchased Eurofins (Celle Lévescault)
Method in brief: as §1

[7] = molecular target: T7, 380 human recombinant protein kinases (Homo sapiens, UniProt P00519, T315I); details: Abl(T315I)(h), read-out: Inhibition rate
T7 construct: purchased Eurofins (Celle Lévescault)
Method in brief: as §1

[8] = molecular target: T8, 380 human recombinant protein kinases (Homo sapiens, UniProt O94921); details: CDK14/cyclinY(h), read-out: Inhibition rate
T8 construct: purchased Eurofins (Celle Lévescault)
Method in brief: as §1

[9] = molecular target: T9, 380 human recombinant protein kinases (Homo sapiens, UniProt O75582); details: MSK1(h), read-out: Inhibition rate
T9 construct: purchased Eurofins (Celle Lévescault)
Method in brief: as §1

[10] = molecular target: T10, 380 human recombinant protein kinases (Homo sapiens, UniProt O95747); details: OSR1(h), read-out: Inhibition rate
T10 construct: purchased Eurofins (Celle Lévescault)
Method in brief: as §1

[11] = molecular target: T11, 380 human recombinant protein kinases (Homo sapiens, UniProt O75716); details: STK16(h), read-out: Inhibition rate (%)
T11 construct: purchased Eurofins (Celle Lévescault)
Method in brief: as §1

[12] = molecular target: T12, 380 human recombinant protein kinases (Homo sapiens, UniProt Q9UK32); details: Rsk4(h), read-out: Inhibition rate (%)
T12 construct: purchased Eurofins (Celle Lévescault)
Method in brief: as §1

T12 sequence (Q9UK32 whole entry): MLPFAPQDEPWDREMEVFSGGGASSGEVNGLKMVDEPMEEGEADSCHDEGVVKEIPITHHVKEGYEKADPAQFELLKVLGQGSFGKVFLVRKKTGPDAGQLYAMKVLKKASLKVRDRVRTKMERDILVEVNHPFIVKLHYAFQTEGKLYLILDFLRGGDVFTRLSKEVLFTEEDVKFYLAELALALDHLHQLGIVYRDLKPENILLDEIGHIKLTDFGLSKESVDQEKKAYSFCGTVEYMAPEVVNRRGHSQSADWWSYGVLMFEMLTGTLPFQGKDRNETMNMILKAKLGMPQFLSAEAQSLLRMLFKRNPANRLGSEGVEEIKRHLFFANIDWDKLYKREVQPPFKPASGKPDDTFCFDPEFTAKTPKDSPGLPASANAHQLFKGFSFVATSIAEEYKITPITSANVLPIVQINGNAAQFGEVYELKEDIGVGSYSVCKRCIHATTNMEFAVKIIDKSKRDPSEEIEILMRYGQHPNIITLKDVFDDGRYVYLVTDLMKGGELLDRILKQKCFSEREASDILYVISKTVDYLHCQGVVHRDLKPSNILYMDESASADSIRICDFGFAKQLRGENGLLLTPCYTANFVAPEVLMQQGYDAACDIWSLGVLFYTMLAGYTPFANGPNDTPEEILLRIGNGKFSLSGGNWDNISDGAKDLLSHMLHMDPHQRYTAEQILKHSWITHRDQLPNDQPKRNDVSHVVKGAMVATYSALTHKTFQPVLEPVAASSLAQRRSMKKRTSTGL
T11 sequence (O75716 whole entry): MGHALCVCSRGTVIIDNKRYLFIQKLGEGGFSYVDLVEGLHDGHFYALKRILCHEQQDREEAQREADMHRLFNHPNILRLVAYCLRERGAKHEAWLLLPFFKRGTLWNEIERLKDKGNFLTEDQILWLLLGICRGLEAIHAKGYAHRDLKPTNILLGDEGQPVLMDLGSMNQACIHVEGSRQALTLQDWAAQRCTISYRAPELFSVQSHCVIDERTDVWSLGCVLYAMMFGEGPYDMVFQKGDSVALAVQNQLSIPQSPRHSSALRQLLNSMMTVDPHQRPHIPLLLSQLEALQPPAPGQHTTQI
T4 sequence (Q16288 32-839): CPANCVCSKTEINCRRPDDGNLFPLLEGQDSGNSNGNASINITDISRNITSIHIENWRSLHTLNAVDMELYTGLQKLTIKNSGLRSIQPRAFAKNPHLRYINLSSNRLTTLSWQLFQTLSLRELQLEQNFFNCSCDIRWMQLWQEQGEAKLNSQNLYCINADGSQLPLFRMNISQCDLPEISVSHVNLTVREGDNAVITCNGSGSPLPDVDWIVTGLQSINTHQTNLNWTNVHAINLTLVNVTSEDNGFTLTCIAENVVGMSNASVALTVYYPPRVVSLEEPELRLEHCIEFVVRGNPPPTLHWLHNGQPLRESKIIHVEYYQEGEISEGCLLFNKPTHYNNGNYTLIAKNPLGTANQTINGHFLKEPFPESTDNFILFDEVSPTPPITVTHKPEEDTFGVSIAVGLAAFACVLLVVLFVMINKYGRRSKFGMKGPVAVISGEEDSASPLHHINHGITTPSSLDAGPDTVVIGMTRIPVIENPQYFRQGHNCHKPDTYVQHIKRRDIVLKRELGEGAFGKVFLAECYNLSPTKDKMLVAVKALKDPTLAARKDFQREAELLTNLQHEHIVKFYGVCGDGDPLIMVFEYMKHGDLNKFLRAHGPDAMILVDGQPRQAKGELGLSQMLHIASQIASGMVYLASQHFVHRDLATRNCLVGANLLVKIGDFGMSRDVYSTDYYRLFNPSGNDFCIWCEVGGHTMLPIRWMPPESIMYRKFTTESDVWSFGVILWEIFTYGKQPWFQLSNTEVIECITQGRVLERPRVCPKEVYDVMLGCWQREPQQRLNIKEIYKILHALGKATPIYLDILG
T10 sequence (O95747 whole entry): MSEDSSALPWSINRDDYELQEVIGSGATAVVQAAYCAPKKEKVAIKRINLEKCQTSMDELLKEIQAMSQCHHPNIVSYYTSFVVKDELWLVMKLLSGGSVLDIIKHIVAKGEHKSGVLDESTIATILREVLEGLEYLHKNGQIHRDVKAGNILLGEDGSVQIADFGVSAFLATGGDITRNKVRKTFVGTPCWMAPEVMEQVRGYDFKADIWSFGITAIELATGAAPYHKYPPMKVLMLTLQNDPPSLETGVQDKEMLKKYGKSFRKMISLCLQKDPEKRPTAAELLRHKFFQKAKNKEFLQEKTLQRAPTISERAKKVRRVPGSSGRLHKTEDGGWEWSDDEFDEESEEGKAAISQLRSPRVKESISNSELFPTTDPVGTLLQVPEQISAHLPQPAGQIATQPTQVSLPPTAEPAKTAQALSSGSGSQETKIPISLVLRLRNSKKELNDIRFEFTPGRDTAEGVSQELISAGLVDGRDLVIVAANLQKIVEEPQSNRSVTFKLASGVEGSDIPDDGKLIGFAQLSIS
T1 sequence (P49759 whole entry): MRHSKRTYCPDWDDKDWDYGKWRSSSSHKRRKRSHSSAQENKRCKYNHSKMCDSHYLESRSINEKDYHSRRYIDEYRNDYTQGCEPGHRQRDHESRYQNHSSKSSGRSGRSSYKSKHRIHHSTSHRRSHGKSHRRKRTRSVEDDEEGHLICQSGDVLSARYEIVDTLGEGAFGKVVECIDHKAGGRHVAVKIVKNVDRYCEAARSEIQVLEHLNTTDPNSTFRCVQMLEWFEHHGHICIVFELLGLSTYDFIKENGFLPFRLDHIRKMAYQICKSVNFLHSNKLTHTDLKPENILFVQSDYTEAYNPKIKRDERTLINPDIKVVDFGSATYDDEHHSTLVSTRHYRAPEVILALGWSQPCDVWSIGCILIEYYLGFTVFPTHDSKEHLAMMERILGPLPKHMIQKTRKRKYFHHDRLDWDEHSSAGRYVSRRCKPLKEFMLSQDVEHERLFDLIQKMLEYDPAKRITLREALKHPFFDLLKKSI
T3 sequence (P42685 whole entry): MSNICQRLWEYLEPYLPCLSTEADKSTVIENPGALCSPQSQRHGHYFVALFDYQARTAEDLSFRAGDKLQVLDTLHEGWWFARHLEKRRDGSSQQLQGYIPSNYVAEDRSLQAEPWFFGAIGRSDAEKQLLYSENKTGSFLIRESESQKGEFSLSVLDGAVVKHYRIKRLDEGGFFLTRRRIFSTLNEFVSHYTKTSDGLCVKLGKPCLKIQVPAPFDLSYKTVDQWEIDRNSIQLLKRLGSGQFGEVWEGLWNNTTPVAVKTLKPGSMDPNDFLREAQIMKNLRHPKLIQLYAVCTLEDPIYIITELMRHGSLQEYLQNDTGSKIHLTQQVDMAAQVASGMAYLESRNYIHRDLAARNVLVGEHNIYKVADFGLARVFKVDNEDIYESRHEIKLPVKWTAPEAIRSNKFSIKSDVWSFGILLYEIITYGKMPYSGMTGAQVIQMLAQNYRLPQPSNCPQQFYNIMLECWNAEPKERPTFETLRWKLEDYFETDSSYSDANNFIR
T6 sequence (Q13153 whole entry): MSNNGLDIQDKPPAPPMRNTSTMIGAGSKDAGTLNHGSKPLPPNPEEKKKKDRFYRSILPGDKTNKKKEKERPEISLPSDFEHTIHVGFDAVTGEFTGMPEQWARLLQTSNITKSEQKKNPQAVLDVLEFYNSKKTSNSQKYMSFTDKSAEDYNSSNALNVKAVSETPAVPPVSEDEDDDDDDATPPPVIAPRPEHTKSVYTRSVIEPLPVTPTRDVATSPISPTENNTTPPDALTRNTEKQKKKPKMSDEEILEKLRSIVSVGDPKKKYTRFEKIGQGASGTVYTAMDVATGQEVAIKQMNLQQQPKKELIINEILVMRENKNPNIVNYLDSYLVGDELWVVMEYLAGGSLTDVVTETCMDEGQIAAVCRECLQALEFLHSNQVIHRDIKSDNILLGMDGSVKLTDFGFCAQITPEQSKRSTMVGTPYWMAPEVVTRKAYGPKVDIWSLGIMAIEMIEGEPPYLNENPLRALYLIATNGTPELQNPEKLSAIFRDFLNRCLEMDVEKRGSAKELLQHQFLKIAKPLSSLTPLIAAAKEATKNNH
T8 sequence (O94921 whole entry): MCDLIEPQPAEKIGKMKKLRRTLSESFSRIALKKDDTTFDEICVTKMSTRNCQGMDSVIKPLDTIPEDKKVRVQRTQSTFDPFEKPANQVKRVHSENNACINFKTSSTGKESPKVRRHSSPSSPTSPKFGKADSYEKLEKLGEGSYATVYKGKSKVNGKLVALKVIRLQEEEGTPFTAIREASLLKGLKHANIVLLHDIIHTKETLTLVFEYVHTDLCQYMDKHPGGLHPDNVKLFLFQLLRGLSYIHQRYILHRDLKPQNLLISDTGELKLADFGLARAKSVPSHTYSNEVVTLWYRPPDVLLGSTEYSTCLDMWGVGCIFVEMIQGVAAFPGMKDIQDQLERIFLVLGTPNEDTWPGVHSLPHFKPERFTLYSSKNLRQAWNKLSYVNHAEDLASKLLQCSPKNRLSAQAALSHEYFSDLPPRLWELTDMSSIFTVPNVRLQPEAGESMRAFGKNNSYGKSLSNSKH

## C=CC(=O)Nc1cc(-c2cc(-c3cc4c([nH]3)CCNC4=O)ccn2)ccc1OC(F)(F)F [compound 11]
[1]; 10 nM
  inhibition at 0.01 µM: -7%
[1]; 100 nM
  inhibition at 0.1 µM: 12%
[1]; 1000 nM
  inhibition at 1 µM: 70%
[2]; 10 nM
  inhibition at 0.01 µM: 11%
[2]; 100 nM
  inhibition at 0.1 µM: 7%
[2]; 1000 nM
  inhibition at 1 µM: 2%
[3]; 10 nM
  inhibition at 0.01 µM: -7%
[3]; 100 nM
  inhibition at 0.1 µM: 6%
[3]; 1000 nM
  inhibition at 1 µM: 5%
[4]; 10 nM
  inhibition at 0.01 µM: -3%
[4]; 100 nM
  inhibition at 0.1 µM: 4%
[4]; 1000 nM
  inhibition at 1 µM: -3%
[5]; 10 nM
  inhibition at 0.01 µM: -7%
[5]; 100 nM
  inhibition at 0.1 µM: 0%
[5]; 1000 nM
  inhibition at 1 µM: 6%
[6]; 10 nM
  inhibition at 0.01 µM: -10%
[6]; 100 nM
  inhibition at 0.1 µM: -7%
[6]; 1000 nM
  inhibition at 1 µM: -5%
[7]; 10 nM
  inhibition at 0.01 µM: 6%
[7]; 100 nM
  inhibition at 0.1 µM: 11%
[7]; 1000 nM
  inhibition at 1 µM: 31%
[8]; 10 nM
  inhibition at 0.01 µM: -2%
[8]; 100 nM
  inhibition at 0.1 µM: 7%
[8]; 1000 nM
  inhibition at 1 µM: 4%
[9]; 10 nM
  inhibition at 0.01 µM: -11%
[9]; 100 nM
  inhibition at 0.1 µM: -12%
[9]; 1000 nM
  inhibition at 1 µM: -11%
[10]; 10 nM
  inhibition at 0.01 µM: -1%
[10]; 100 nM
  inhibition at 0.1 µM: 5%
[10]; 1000 nM
  inhibition at 1 µM: 11%
[11]; 10 nM
  inhibition at 0.01 µM: 0%
[11]; 100 nM
  inhibition at 0.1 µM: -3%
[11]; 1000 nM
  inhibition at 1 µM: 11%
[12]; 10 nM
  inhibition at 0.01 µM: -9%
[12]; 100 nM
  inhibition at 0.1 µM: -4%
[12]; 1000 nM
  inhibition at 1 µM: -13%
